Data as given in patent US7704986B2, “Vitamin D3 analogues for the prevention and treatment of bone disorders” (K.U. Leuven Research and Development, priority 2004, dated 2010).
Several values for one entry are separate records, joined by “and”; a condition that tells them apart may be missing. Equal entries are not always repeated.

Key:
[1] = tested on: SHAM or OVX operated C3H mice; test: Ovariectomized mice model for primary prevention of osteoporosis; format: in vivo; conditions: 0.5 μg/kg i.p.
Procedure: Twelve-week-old C3H mice were randomly divided into four groups (9-13 mice/group). Two groups of mice were SHAM-operated (SHAM) and two groups were ovariectomized (OVX). Three days after the surgical procedure the SHAM and OVX mice were injected with MV2 intraperitoneally at 0.5 μg/kg/2days (4 times per week) or vehicle (arachis oil). The mice were treated for 8 weeks. At the beginning (before the first injection) of the experiment, bone mineral density (BMD) and bone mineral content (BMC) were determined by dual-energy X-ray absorptiometry (hereinafter referred as DEXA) and serum calcium levels were determined by a microcolorimetric assay. The animals were weighted regularly during the experimental period.
At the end of the experiment serum calcium levels, BMD and BMC were again measured. Trabecular and cortical bone mineral content (BMC) and bone mineral density (BMD) and the geometry of the femur were assessed by a Stratex XCT densitometer (pQCT). Femur calcium content was measured in HCl-dissolved bone ash (obtained by heating for 24 hours in an oven at 100° C.), using a microcolorimetric assay. […] Statistical analysis was performed with the software program NCSS (NCSS, Kaysville, Utah, USA). ANOVA analyses followed bye Fisher's least significant (LSD)-multiple comparison tests were carried out to detect significant differences, p<0.05 was accepted as significant.

vitamin D receptor (VDR) = target: T1, vitamin D receptor (VDR) (Sus scrofa, UniProt A3RGC1); test: Affinity for vitamin D receptor: competition with [3H]1α,25(OH)2D3; format: binding; conditions: pig intestinal mucosa supernatant, 4° C. 20 hours; 1α,25(OH)2D3 = 100%
T1 construct: high speed supernatant from intestinal mucosa homogenates obtained from normal pigs; from tissue; host or cells: pig intestinal mucosa (high speed supernatant of homogenate)
T1 sequence (A3RGC1 1-427): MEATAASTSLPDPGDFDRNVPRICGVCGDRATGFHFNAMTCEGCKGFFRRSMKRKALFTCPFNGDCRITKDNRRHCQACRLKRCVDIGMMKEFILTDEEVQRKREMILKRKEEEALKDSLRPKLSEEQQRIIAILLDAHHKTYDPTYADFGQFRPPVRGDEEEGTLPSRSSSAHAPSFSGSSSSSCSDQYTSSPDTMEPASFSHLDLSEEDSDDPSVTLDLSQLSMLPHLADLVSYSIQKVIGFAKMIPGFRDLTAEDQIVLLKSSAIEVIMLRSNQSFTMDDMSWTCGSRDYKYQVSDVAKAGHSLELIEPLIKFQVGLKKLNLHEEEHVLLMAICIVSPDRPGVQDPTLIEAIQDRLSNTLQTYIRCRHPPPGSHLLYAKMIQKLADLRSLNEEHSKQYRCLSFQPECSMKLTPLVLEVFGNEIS
Procedure: The methods used herein to evaluate the binding properties of vitamin D analogues are state of the art techniques used for steroid hormone (including vitamin D) binding assays. […] Incubation was performed at 4° C. for 20 hours and phase separation was obtained by addition of dextran-coated charcoal.

[2] = tested on: normal (no surgery) C3H female mice; test: Oral gavage versus i.p. in normal (no surgery) mice, 5 weeks; format: in vivo; conditions: for BMC total body, SHAM + vitaminD analogue vs. SHAM + vehicle (= 100%) in % / BMD spine, SHAM + vitaminD analogue vs. SHAM + vehicle (= 100%) in % / BMD total body, SHAM + vitaminD analogue vs. SHAM + vehicle (= 100%) in %: DEXA, 5 weeks, increase (↑)
Procedure: Besides injecting the compound MV2 intraperitoneally (results in table 3), it was also given orally by gavage in normal (no surgery) C3H female mice and the biological effects were investigated as described before. MV2 given orally at a dose of 1 μg/kg/2days (3 times per week) during 5 weeks was as effective as intraperitoneal injections at a dose of 0.5 μg/kg/2 days (4 times per week) during 5 weeks in C3H mice (Table 4).

NMRI mice = test: In vivo activity: serum and femur calcium after 7 daily i.p. injections; conditions: dose 0.2 μg/kg/d i.p., 7 days; * in cell = P < 0.05
Procedure: Eight weeks old, male NMRI mice were fed a vitamin D-replete diet (0.2% calcium, 1% phosphate, 2000 U vitamin D/kg; Hope Farms, Woerden, The Netherlands). Groups of six mice were intraperitoneally injected daily during 7 consecutive days with different doses of 1,25(OH)2D3 (0.2 and 0.4 μg/kg/day) or analogues. The control group was injected with vehicle (arachis oil). The average weight of each group of 6 mice was determined at the beginning and at the end of the experiment. The following parameters were evaluated: serum calcium and femur calcium. Serum calcium was measured by a microcolorimetric assay (Sigma, St. Louis, Mo.). Femurs were removed and femur calcium content was measured in HCl-dissolved bone ash (obtained by heating for 24 hours in an oven at 100° C.), using the same technique as for serum calcium. Student's t-tests were carried out to detect significant differences; p<0.05 was accepted as significant. […]

[3] = DEXA, OVX mice, 8 weeks, increase (↑)
[4] = DEXA, SHAM mice, 8 weeks, increase (↑)
[5] = calculated from pQCT femur, OVX mice, 8 weeks, increase (↑)
[6] = calculated from pQCT femur, SHAM mice, 8 weeks, increase (↑), * not significant
[7] = pQCT femur, OVX mice, 8 weeks, increase (↑)
[8] = pQCT femur, SHAM mice, 8 weeks, increase (↑)
[9] = 0.5 μg/kg/2 days i.p. 4 times per week
[10] = 1 μg/kg/2 days orally 3 times per week

serum calcium levels (no hypercalcemic effects) ([1]; end of 8 weeks): below 11.5 mg/dl
VDR (relative affinity) (vitamin D receptor (VDR)): 50%
serum calcium levels ([2]; analogue treated mice, 5 weeks (control mice 11.43±0.78)): 11.36 ± 0.56 mg/dL
Serum calcium vs. control (%) (NMRI mice): 97%
Structure (SMILES): C[C@H](CC#CC(O)(C(F)(F)F)C(F)(F)F)[C@@]1(C)CC[C@@H](/C=C/C=C2C[C@@H](O)C[C@H](O)C2)C1(C)C [MV2, (1R,3R)-5-((E)-3-((1S,3R)-3-((1R)-6,6,6-trifluoro-5-hydroxy-1-methyl-5-trifluoromethyl-3-hexynyl)-2,2,3-trimethylcyclopentyl)-2-propenylidene)cyclohexane-1,3-diol]
body weight during treatment ([1]; 8 weeks): no animals lost weight
BMC total body, OVX + analogue vs. OVX + vehicle (= 100%) in % [1, 3]: 19% and 19 ↑ %
BMD spine, OVX + analogue vs. OVX + vehicle (= 100%) in % [1, 3]: 22% and 22 ↑ %
BMD total body, OVX + analogue vs. OVX + vehicle (= 100%) in % [1, 3]: 9% and 9 ↑ %
BMC total body, SHAM + analogue vs. SHAM + vehicle (= 100%) in % [1, 4]: 16% and 16 ↑ %
BMD spine, SHAM + analogue vs. SHAM + vehicle (= 100%) in % [1, 4]: 11% and 11 ↑ %
BMD total body, SHAM + analogue vs. SHAM + vehicle (= 100%) in % [1, 4]: 9% and 9 ↑ %
increase in calcium content in femur, OVX treated animals compared to control animals ([1]; OVX mice, 8 weeks): 14%
increase in calcium content in femur, SHAM treated animals compared to control animals ([1]; SHAM mice, 8 weeks): 12%
Moment of inertia, OVX analogue versus OVX vehicle (=100%) in % [1, 5]: 12 ↑ %
Moment of resistance, OVX analogue versus OVX vehicle (=100%) in % [1, 5]: 8 ↑ %
Moment of inertia, SHAM analogue versus SHAM vehicle (=100%) in % [1, 6]: 6 ↑* %
Moment of resistance, SHAM analogue versus SHAM vehicle (=100%) in % [1, 6]: 3 ↑* %
Endosteal circumference, OVX analogue versus OVX vehicle (=100%) in % ([1]; pQCT femur, OVX mice, 8 weeks, decrease (↓), * not significant): 2 ↓* %
Cortical BMC, OVX analogue versus OVX vehicle (=100%) in % [1, 7]: 11 ↑ %
Cortical BMD, OVX analogue versus OVX vehicle (=100%) in % [1, 7]: 2 ↑ %
Cortical area, OVX analogue versus OVX vehicle (=100%) in % [1, 7]: 9 ↑ %
Cortical thickness, OVX analogue versus OVX vehicle (=100%) in % [1, 7]: 8 ↑ %
Periosteal circumference, OVX analogue versus OVX vehicle (=100%) in % [1, 7]: 3% and 3 ↑ %
Trabecular BMC, OVX analogue versus OVX vehicle (=100%) in % [1, 7]: 69 ↑ %
Trabecular BMD, OVX analogue versus OVX vehicle (=100%) in % [1, 7]: 57 ↑ %
Trabecular area, OVX analogue versus OVX vehicle (=100%) in % [1, 7]: 8 ↑ %
Endosteal circumference, SHAM analogue versus SHAM vehicle (=100%) in % ([1]; pQCT femur, SHAM mice, 8 weeks, decrease (↓), * not significant): 4 ↓* %
Cortical BMC, SHAM analogue versus SHAM vehicle (=100%) in % [1, 8]: 7 ↑ %
Cortical BMD, SHAM analogue versus SHAM vehicle (=100%) in % [1, 8]: 1 ↑ %
Cortical area, SHAM analogue versus SHAM vehicle (=100%) in % [1, 8]: 6 ↑ %
Cortical thickness, SHAM analogue versus SHAM vehicle (=100%) in % [1, 8]: 6 ↑ %
Trabecular BMC, SHAM analogue versus SHAM vehicle (=100%) in % [1, 8]: 83 ↑ %
Trabecular BMD, SHAM analogue versus SHAM vehicle (=100%) in % [1, 8]: 74 ↑ %
Trabecular area, SHAM analogue versus SHAM vehicle (=100%) in % [1, 8]: 7 ↑ %
Periosteal circumference, SHAM analogue versus SHAM vehicle (=100%) in % ([1]; pQCT femur, SHAM mice, 8 weeks, increase (↑), * not significant): 1 ↑* %
BMC total body, SHAM + vitaminD analogue vs. SHAM + vehicle (= 100%) in % [2, 9]: 7 ↑ %
BMD spine, SHAM + vitaminD analogue vs. SHAM + vehicle (= 100%) in % [2, 9]: 9 ↑ %
BMD total body, SHAM + vitaminD analogue vs. SHAM + vehicle (= 100%) in % [2, 9]: 4 ↑ %
BMC total body, SHAM + vitaminD analogue vs. SHAM + vehicle (= 100%) in % [2, 10]: 10 ↑ %
BMD spine, SHAM + vitaminD analogue vs. SHAM + vehicle (= 100%) in % [2, 10]: 14 ↑ %
BMD total body, SHAM + vitaminD analogue vs. SHAM + vehicle (= 100%) in % [2, 10]: 5 ↑ %
femur calcium vs. control (%) (NMRI mice): 112* %
